Where two headings read alike, the source gives them in different places.
Experiments:
MT-2 cells = system: MT-2 cells
Procedure: Detection of in vitro cytotoxicity. The in vitro cytotoxicity of compounds for MT-2 cells was measured by a colorimetric method using XTT tetrazolium dye as previously described (21). Briefly, 100 μl of a compound at a graded concentration was added to equal volume of cells (5×10^5/ml) in a well of 96-well plates. After incubation at 37° C. for 4 days, XTT (1 mg/ml; […]; PolySciences, Inc., Warrington, Pa.) was added. Four hours later, the soluble intracellular formazan was quantitated colorimetrically at 450 nm with a reference at 570 nm.

92US657 (clade B, R5) = conditions: read-out: EC50 (μM) (Mean ± SD)
Procedure: (§1) Inhibitory activity of compounds on infection by primary HIV-1 isolates was determined as previously described (37). PBMCs were isolated from the blood of healthy donors at the New York Blood Center by standard density gradient centrifugation using Histopaque-1077 (Sigma). The cells were plated in 75 cm^2 plastic flasks and incubated at 37° C. for 2 hrs. The nonadherent cells were collected and resuspended at 5×10^6 in 10 ml RPMI-1640 medium containing 10% FBS, 5 μg/ml PHA and 100 U/ml IL-2 (Sigma), followed by incubation at 37° C. for 3 days. The PHA-stimulated cells were infected with corresponding primary HIV-1 isolates at 0.01 multiplicity of infection (MOI) in the absence or presence of a compound at graded concentrations. Culture media were changed every 3 days. The supernatants were collected 7 days post-infection and tested for p24 antigen by ELISA as described above. The percent inhibition of p24 production and IC50 values were calculated as described above.

93BR020 (clade F, X4R5) = conditions: read-out: EC50 (μM) (Mean ± SD)
Procedure: as §1

RU570 (clade G, R5) = conditions: read-out: EC50 (μM) (Mean ± SD)
Procedure: as §1

92THA009 (clade E, R5) = conditions: read-out: EC50 (μM) (Mean ± SD)
Procedure: as §1

92UG001 (clade D, X4) = conditions: read-out: EC50 (μM) (Mean ± SD)
Procedure: as §1

BCF02 (clade O, R5) = conditions: read-out: EC50 (μM) (Mean ± SD)
Procedure: as §1

93MW959 (clade C, R5) = conditions: read-out: EC50 (μM) (Mean ± SD)
Procedure: as §1

94UG103 (clade A, X4R5) = conditions: read-out: EC50 (μM) (Mean ± SD)
Procedure: as §1

[1] = read-out: Cytotoxicity CC50 (μM) (M ± SD), MT-2 cells

## CCN1C(=O)/C(=C/c2ccc(-c3cccc(C(=O)O)c3)o2)SC1=S [NB179]
MT-2 cells
  CC50: > 616 µM
92US657 (clade B, R5)
  EC50: 0.847 ± 0.356 µM
93BR020 (clade F, X4R5)
  EC50: 0.143 ± 0.056 µM
RU570 (clade G, R5)
  EC50: 0.431 ± 0.122 µM
92THA009 (clade E, R5)
  EC50: 6.21 ± 0.987 µM
92UG001 (clade D, X4)
  EC50: 0.613 ± 0.099 µM
BCF02 (clade O, R5)
  EC50: 0.886 ± 0.242 µM
93MW959 (clade C, R5)
  EC50: 1.87 ± 0.155 µM
94UG103 (clade A, X4R5)
  EC50: 0.088 ± 0.047 µM

## O=C(O)c1cc(-c2ccc(/C=C3\SC(=S)N(CCc4ccccc4)C3=O)o2)ccc1Cl [NB206]
MT-2 cells; [1]
  CC50: 18.8 ± 7.48 µM
92US657 (clade B, R5)
  EC50: 0.216 ± 0.054 µM
93BR020 (clade F, X4R5)
  EC50: 0.084 ± 0.036 µM
RU570 (clade G, R5)
  EC50: 0.017 ± 0.004 µM
92THA009 (clade E, R5)
  EC50: 0.075 ± 0.022 µM
92UG001 (clade D, X4)
  EC50: 0.188 ± 0.053 µM
BCF02 (clade O, R5)
  EC50: 0.073 ± 0.012 µM
93MW959 (clade C, R5)
  EC50: 0.097 ± 0.002 µM
94UG103 (clade A, X4R5)
  EC50: 0.004 ± 0.001 µM

## O=C(O)c1cccc(-c2ccc(/C=C3\SC(=S)N(c4ccc(Cl)cc4Cl)C3=O)o2)c1 [NB231]
MT-2 cells; [1]
  CC50: 124.1 ± 0.756 µM
92US657 (clade B, R5)
  EC50: 1.06 ± 0.344 µM
93BR020 (clade F, X4R5)
  EC50: 0.139 ± 0.033 µM
RU570 (clade G, R5)
  EC50: 0.143 ± 0.061 µM
92THA009 (clade E, R5)
  EC50: 0.217 ± 0.058 µM
92UG001 (clade D, X4)
  EC50: 0.19 ± 0.002 µM
BCF02 (clade O, R5)
  EC50: 0.226 ± 0.003 µM
93MW959 (clade C, R5)
  EC50: 0.876 ± 0.002 µM
94UG103 (clade A, X4R5)
  EC50: 0.125 ± 0.013 µM

Reference: patent publication US20060287319A1, “Anti-viral compositions comprising heterocyclic substituted phenyl furans and related compounds” (priority 2005, published 2006)
